In patent US12274689B2, “Compound for the management of feline diabetes” (INCREVET, INC., priority 2019, dated 2025):
Marks after values point to notes of the source that are not given here.

Assays:
[1] = test system: ZDF rats; assay: plasma glucose in male Zucker Diabetic Fatty rats, daily oral dosing (study 338); assay type: in vivo; settings: for plasma glucose levels / plasma glucose levels, Day 21 Δ: male ZDF rats; for plasma glucose levels, Day 21 Δ: change Day 0 to Day 21
[2] = target: T1, human SGLT2 (Homo sapiens, UniProt P31639); assay: selectivity for human SGLT2 compared to human SGLT1
T1 sequence (P31639 1-672): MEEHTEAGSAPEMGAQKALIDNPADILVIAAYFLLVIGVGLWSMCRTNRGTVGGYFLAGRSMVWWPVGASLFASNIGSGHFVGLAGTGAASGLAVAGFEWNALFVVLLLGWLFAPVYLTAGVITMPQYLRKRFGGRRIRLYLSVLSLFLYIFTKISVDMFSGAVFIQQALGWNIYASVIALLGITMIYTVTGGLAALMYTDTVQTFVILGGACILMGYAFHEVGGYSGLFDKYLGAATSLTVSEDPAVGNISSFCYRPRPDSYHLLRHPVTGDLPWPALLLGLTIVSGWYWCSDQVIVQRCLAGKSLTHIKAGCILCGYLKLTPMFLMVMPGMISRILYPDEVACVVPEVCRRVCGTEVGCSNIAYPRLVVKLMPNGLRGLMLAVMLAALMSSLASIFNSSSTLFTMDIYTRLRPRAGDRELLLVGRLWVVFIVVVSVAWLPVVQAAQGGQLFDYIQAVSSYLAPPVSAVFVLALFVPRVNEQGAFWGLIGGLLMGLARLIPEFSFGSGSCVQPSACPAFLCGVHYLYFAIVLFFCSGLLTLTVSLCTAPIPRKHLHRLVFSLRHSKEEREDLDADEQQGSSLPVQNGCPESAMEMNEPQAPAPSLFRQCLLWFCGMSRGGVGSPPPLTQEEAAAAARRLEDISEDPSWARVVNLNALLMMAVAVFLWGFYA

selectivity for human SGLT2 compared to human SGLT1 [2]: 2400 fold
SMILES: OC[C@H]1O[C@@H](c2ccc(Cl)c(Cc3ccc(OCCOC4CC4)cc3)c2)[C@H](O)[C@@H](O)[C@@H]1O [bexagliflozin, (2S,3R,4R,5S,6R)-2-(4-chloro-3-(4-(2-cyclopropoxyethoxy)benzyl)phenyl)-6-(hydroxymethyl)tetrahydro-2H-pyran-3,4,5-triol]
change in plasma glucose levels ([1]; ZDF rats, after 7 days, 0.067 mg kg^−1): +2.8% | change in plasma glucose levels ([1]; ZDF rats, after 7 days, 0.2 mg kg^−1): −16.8% | change in plasma glucose levels ([1]; ZDF rats, after 7 days, 0.67 mg kg^−1): −17.1% | change in plasma glucose levels ([1]; ZDF rats, after 7 days, 2.0 mg kg^−1): −25.3% | change in plasma glucose levels ([1]; ZDF rats, after 14 days, 0.067 mg kg^−1): +9.5% | change in plasma glucose levels ([1]; ZDF rats, after 14 days, 0.2 mg kg^−1): −5.6% | change in plasma glucose levels ([1]; ZDF rats, after 14 days, 0.67 mg kg^−1): −8.1% | change in plasma glucose levels ([1]; ZDF rats, after 14 days, 2.0 mg kg^−1): −25.1% | change in plasma glucose levels ([1]; ZDF rats, after 21 days, 0.067 mg kg^−1): +15.5% | change in plasma glucose levels ([1]; ZDF rats, after 21 days, 0.2 mg kg^−1): +4.3% | change in plasma glucose levels ([1]; ZDF rats, after 21 days, 0.67 mg kg^−1): +1.5% | change in plasma glucose levels ([1]; ZDF rats, after 21 days, 2.0 mg kg^−1): −15.4% | blood glucose, level below which it was not reduced ([1]; ZDF rats, sole agent, any dose group): ≥ 287 mg/dL | plasma glucose levels ([1]; 0.067 mg kg^−1 oral once daily, Day 0): 373.2 ± 29.5 mg/dL | plasma glucose levels ([1]; 0.067 mg kg^−1 oral once daily, Day 7): 383.7 ± 33.1 mg/dL | plasma glucose levels ([1]; 0.067 mg kg^−1 oral once daily, Day 14): 408.6 ± 19.6 mg/dL | plasma glucose levels ([1]; 0.067 mg kg^−1 oral once daily, Day 21): 431.0 ± 19.7 mg/dL | plasma glucose levels, Day 21 Δ ([1]; 0.067 mg kg^−1 oral once daily): +57.8 ± 41.7 mg dL^−1 | plasma glucose levels ([1]; 0.2 mg kg^−1 oral once daily, Day 0): 386.6 ± 28.2 mg/dL | plasma glucose levels ([1]; 0.2 mg kg^−1 oral once daily, Day 7): 321.8 ± 19.5 mg/dL | plasma glucose levels ([1]; 0.2 mg kg^−1 oral once daily, Day 14): 364.9 ± 13.1 mg/dL | plasma glucose levels ([1]; 0.2 mg kg^−1 oral once daily, Day 21): 403.2 ± 20.1 mg/dL | plasma glucose levels, Day 21 Δ ([1]; 0.2 mg kg^−1 oral once daily): +16.6 ± 36.6 mg dL^−1 | plasma glucose levels ([1]; 0.67 mg kg^−1 oral once daily, Day 0, n = 10): 384.4 ± 27.5 mg/dL | plasma glucose levels ([1]; 0.67 mg kg^−1 oral once daily, Day 7): 318.7 ± 32.0 mg/dL | plasma glucose levels ([1]; 0.67 mg kg^−1 oral once daily, Day 14): 353.4 ± 18.9 mg/dL | plasma glucose levels ([1]; 0.67 mg kg^−1 oral once daily, Day 21, n = 9): 374.2 ± 37.3 mg/dL | plasma glucose levels, Day 21 Δ ([1]; 0.67 mg kg^−1 oral once daily, n = 9): +5.4 ± 30.8^b mg dL^−1 | plasma glucose levels ([1]; 2 mg kg^−1 oral once daily, Day 0): 384.8 ± 16.5 mg/dL | plasma glucose levels ([1]; 2 mg kg^−1 oral once daily, Day 7): 287.4 ± 27.4 mg/dL | plasma glucose levels ([1]; 2 mg kg^−1 oral once daily, Day 14): 288.3 ± 17.1 mg/dL | plasma glucose levels ([1]; 2 mg kg^−1 oral once daily, Day 21): 325.4 ± 13.0 mg/dL | plasma glucose levels, Day 21 Δ ([1]; 2 mg kg^−1 oral once daily): -59.4 ± 22.4 mg/dL
